Test results from patent US5530128A, “N-sulphonylamino derivatives of dipetide compounds as metalloproteinase inhibitors” (Celltech Therapeutics Limited, priority 1992, dated 1996).

Columns and labels:
Assay type in all cases: biochemical
Gelatinase 72KD = molecular target: T1, Gelatinase 72KD (Homo sapiens, UniProt P08253); experiment: Enzyme inhibition assay (fluorimetric, peptide substrate Dnp-Pro-Leu-Gly-Trp-Ala-D-Arg-NH2), gelatinase; details: true Ki from plot of Ki (app) vs. [S]; pH 7.5, overnight
T1 sequence (P08253 110-660): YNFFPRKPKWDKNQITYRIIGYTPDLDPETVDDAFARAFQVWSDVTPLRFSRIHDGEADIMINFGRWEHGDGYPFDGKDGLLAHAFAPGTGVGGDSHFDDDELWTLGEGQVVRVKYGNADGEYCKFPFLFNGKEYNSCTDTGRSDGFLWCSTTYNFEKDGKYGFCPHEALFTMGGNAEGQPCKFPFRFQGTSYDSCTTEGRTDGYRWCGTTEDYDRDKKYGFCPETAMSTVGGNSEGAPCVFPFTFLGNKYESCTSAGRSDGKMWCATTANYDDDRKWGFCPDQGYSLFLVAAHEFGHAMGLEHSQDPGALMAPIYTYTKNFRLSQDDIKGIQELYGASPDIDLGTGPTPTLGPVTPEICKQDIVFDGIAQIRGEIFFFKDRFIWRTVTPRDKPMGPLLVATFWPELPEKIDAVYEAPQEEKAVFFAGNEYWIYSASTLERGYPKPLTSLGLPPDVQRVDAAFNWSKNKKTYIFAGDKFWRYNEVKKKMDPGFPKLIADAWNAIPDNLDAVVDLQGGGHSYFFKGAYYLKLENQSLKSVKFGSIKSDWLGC
Procedure: (§1) The activity and selectivity of the compounds of the invention may be determined as described below. All enzyme assays to determine Ki values were performed using the peptide substrate […]. [M. Sharon Stock and Rober D. Gray, JBC 264, 4277-81, 1989]. The enzymes cleave at the Gly-Leu bond which can be followed fluorimetrically by measuring the increase in Trp fluorescence emission associated with the removal of the quenching dinitrophenol (Dnp) group. […] Brij 35 at either room temperature or 37° C. depending on the enzyme. The reaction is stopped by adjusting the pH to 4 using 0.1M sodium acetate buffer and the fluorescence read at an excitation wavelength of 280 nm and emission wavelength of 346 nm. […] For stromelysin and collagenase, Ki (app) was assumed to approximate to the true Ki as [S]<<Km for the substrate hydrolysis. For gelatinase the Ki was determined by performing the analyses at several substrate concentrations. A plot of Ki (app) vs. [S] then gave the true Ki as the value of the y-axis intercept.

Collagenase = molecular target: T2, Collagenase (Homo sapiens, UniProt P03956); experiment: Enzyme inhibition assay (fluorimetric, peptide substrate Dnp-Pro-Leu-Gly-Trp-Ala-D-Arg-NH2), collagenase; details: Ki (app) assumed to approximate to the true Ki; pH 7.5, overnight
T2 sequence (P03956 100-469): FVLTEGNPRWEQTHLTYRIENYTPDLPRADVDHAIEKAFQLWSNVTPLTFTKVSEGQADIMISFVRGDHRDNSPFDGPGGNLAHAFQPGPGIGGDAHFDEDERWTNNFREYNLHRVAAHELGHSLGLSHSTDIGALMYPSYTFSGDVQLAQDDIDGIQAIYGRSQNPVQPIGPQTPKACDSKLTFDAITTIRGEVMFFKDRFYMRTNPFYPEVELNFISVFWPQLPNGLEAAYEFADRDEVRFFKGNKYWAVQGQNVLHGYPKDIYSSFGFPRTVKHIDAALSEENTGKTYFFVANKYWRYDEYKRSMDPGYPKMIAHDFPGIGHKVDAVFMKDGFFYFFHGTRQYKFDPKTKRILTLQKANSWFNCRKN
Procedure: as §1

Stromelysin-1 = Stromelysin-1 (Homo sapiens, UniProt P08254); experiment: Enzyme inhibition assay (fluorimetric, peptide substrate Dnp-Pro-Leu-Gly-Trp-Ala-D-Arg-NH2), stromelysin; details: Ki (app) assumed to approximate to the true Ki; pH 7.5, overnight
Procedure: as §1

Stromelysin-1, sequence (P08254 100-477, species assumed): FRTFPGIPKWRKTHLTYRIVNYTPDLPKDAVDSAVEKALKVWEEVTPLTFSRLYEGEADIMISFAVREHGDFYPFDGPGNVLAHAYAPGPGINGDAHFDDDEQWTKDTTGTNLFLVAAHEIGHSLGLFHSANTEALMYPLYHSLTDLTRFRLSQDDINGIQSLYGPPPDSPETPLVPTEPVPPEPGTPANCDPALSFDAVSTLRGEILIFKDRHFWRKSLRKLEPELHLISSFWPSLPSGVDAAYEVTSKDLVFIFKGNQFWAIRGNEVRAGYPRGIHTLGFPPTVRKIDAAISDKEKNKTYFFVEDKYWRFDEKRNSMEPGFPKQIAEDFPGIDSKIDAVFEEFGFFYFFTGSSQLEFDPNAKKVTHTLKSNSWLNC

SMILES | Ki (Gelatinase 72KD) | Ki (Collagenase) | Ki (Stromelysin-1)
Cc1ccc(CCC[C@H](CC(=O)O)C(=O)N[C@@H](CC2CCCCC2)C(=O)NCCNS(=O)(=O)N2CCOCC2)cc1 [Example 2, {4-Hydroxy-2-(R)-[3-(4-methylphenyl)propyl]succinyl}-L-β-cyclohexylalanine-N-[(2-morpholinesulphonylamino)ethyl]amide] | 1.43 nM | 100000 nM | 802 nM
Cc1ccc(CCC[C@H](CC(=O)NO)C(=O)N[C@@H](CC2CCCCC2)C(=O)NCCCNS(=O)(=O)N(C)C)cc1 [Example 6] | – | 800 nM | 6.8 nM
Cc1ccc(CCC[C@H](CC(=O)NO)C(=O)N[C@@H](CC2CCCCC2)C(=O)NCCNS(=O)(=O)N2CCOCC2)cc1 [Example 3, {4-(N-Hydroxyamino)-2(R)-[3-(4-methylphenyl)propyl]succinyl}-L-β-cyclohexylalanine-N-[(2-morpholinesulphonylamino)ethyl]amide] | – | 385 nM | 2.75 nM
Cc1ccc(CCC[C@H](CC(=O)NO)C(=O)N[C@@H](CC2=CCCCC2)C(=O)NCCNS(=O)(=O)N2CCOCC2)cc1 [Example 5, {4-(N-Hydroxyamino)-2(R)-[3-(4-methylphenyl)propyl]succinyl}-L-β-(1-cyclohexenylalanine)-N-[(2-morpholinesphonylamino)ethyl]amide] | 0.047 nM | 554 nM | 18.7 nM
O=C(C[C@@H](CCCc1ccc(Cl)cc1)C(=O)N[C@@H](CC1CCCCC1)C(=O)NCCNS(=O)(=O)N1CCOCC1)NO [Example 4, {4-(N-Hydroxyamino)-2(R)-[3-(4-chlorophenyl)propyl]succinyl}-L-β-cyclohexylalanine-N-[(2-morpholinesulphonylamino)ethyl]amide] | 0.014 nM | 302 nM | 1.73 nM
